# Data published in US6569846B1, “Palladium-substituted bacteriochlorophyll derivatives and use thereof” (Yeda Research and Development Co. Ltd., priority 1998, dated 2003).
# What was measured:
# C6 glioma tumors = assay: In vivo PDT of C6 glioma tumors and metastasis formation; design: species or system CD1 nude mice; settings: 5 mg/Kg i.v.; for tumor flattening (disappearance): 200 mw/cm^2 for 30 minutes
# Description: (i) Materials: Pd-BPheid (prepared as in Example 1) or Pd-BPpheid-SerOMe 5 mg/kg in 20% Cremophor EL.
# (ii) Light source: The light source was a Xenon fluorine LS3-PDT lamp (Bio-Spec, Russia), with 10 cm water filter and 720-850 nm light band.
# (iv) Tumors: Mice were implanted with 10^6 C6 glioma cells in the foot of the hind leg. Tumors were treated when reached a length of 7-8 mm.
# (vii) Protocol: Three groups (10 mice in each) were i.v. injected with 5 mg/Kg of sensitizer (Pd-BPheid or Pd-BPpheid-SerOMe) and immediately illuminated at 200 mw/cm^2, for 30 minutes, and the animals were allowed to recover in the cage. Groups 1 and 2: Animals which received PDT Pd-Bpheid and Pd-BPpheid-SerOMe, respectively. Tumor response and metastasis formation in groin were followed for 4 weeks. Group 3: Animals which were amputated at the ankle joint (paired with group 1) and metastasis formation in groin was followed for 4 weeks. The parameters of response to PDT were the percent of animals with tumor necrosis and disappearance, out of the total number of treated animals. Metatstasis was manifested by appearance of tumors in the groin or elsewhere. The endpoints considered were: follow up for 4 weeks, spontaneous death, tumors reached a diameter of 2 cm, metastasis, whichever came first.
# [1] = tested on: M2R mouse melanoma tumors; assay: In vivo PDT of M2R melanoma tumors; design: species or system CD1 nude mice; settings: 2.5 mg/Kg i.v., illuminated 30 min at 300 mW cm^−2; within 24 h
# Description: (iv) Tumor implantation: Mice were implanted with 10^6 M2R cells on the back and tumors arose to the treatment size (7-8 mm) within 2-3 weeks.
# (v) Light source: Osram 150 W halogen photo-optic lamp 64643 (D. K. Keller et al 1999, Int. J. Hyperthermia 15, 467-474) equipped with λ=650-900 mn spectral window, 300 mW/cm^−2. Illumination was for 30 min.
# (vi) PDT protocol: The anesthetized mouse was i.v injected with the pigment and the tumor immediately illuminated. At the end of treatment the mouse was placed back in the cage. Photographs of the tumor were taken before and at the times indicated.
# Preparation of sensitizer: Two mg Pd-BPheid were dissolved in 0.25 ml cremophor EL followed by 20 min sonication. 0.075 ml 1,2-propylene glycol were added and sonication was continued for another 15 min. Then 0.9 ml of […] were added followed by 5 min sonication. The sample was centrifuged for 12 min at 13,000 rpm (Eppendorf). The final calculated concentration of Pd-BPheid based on spectrum in chloroform was 0.5 mg/ml. […]
# Preparation of sensitizer: Two mg Pd-BPheid were dissolved in 0.1 ml methanol, 0.1 ml 0.1M KH2PO4, pH=8.0 and 0.9 ml PBS and sonicated for 10 min. […] The sample was centrifuged for 8 min on 13,000 rpm the final calculated concentration of Pd-BPheid based on spectrum in chloroform was 0.5 mg/ml. […]
# [2] = tested on: A431 human epithelial carcinoid cells
# Description: (ii) Light source: Halogen lamp (Osram, Germany, 100 W), with 4.5 cm water filter and cut off filter>650 nm. The cells were illuminated for 10 minutes, 15 mW/cm^2, a total energy fluency of 9 J/cm^2. For illumination, the culture plates were placed on a glass table to provide the light from the bottom.
# (iii) Phototoxicity study: A431 cells (5×10^4 cells) were seeded in 3 cm dishes in duplicates and cultured to 75% confluency in Dulbecco's modified Eagle's medium (DMEM)+F12 (1:1), buffered with HEPES (25 mM, pH 7.4), fetal calf serum (FCS) with penicillin (0.06 mg/ml) and streptomycin (0.1 mg/ml). […] After a 4-hour period the cells were washed with culture medium and the cells were illuminated with the light source above. Phase contrast microscopic examination was performed at different time points after illumination (0, 0.5, 4 and 24 hours post-PDT) using Zeiss Axiovert-35 light microscope (magnification X320) equipped with a Contax 35 mm SLR camera. In the second dish of every duplicate, cell viability was assessed 24 hours post-PDT using neutral red viability assay (Zhang S Z., 1990, Cell Biol Toxicol 6(2): 219-234).
# [3] = tested on: mouse leukemia L1210 cells; assay: Sites of photodamage (fluorescent probes); format: cell-based
# Description: (§1) (ii) In vitro phototoxicity. For studies on phototoxicity involving L1210 and RIF cells, light was provided by a 600 watt quartz-halogen source filtered with 10 cm of water and a 850 nm cut-off filter to remove IR. The bandwidth was further confined to 660±5 nm by an interference filter (Oriel). Cells in suspension (L1210) or adhering to 24 mm diameter cover slips were incubated in growth medium (with 20 mM HEPES pH 7 replacing NaHCO3 for added buffering capacity) for 15 min in the presence of specified levels of sensitizers. The cells were then washed free from the sensitizer, and transferred to fresh media. Irradiations were carried out at 10° C. For some studies, the cells were then labeled with fluorescent probes and sites of photodamage were assessed. In other studies, the cells were then incubated for 60 min at 37° C. in fresh medium to allow apoptosis to proceed. Viability studies were carried out using 96-well plates and a 72-hour MTT assay, in quadruplicate.
# M2R mouse melanoma cells = assay: Phototoxicity on M2R cells (Example 10, [3H]-thymidine incorporation); format: cell-based; settings: pigments dissolved directly in culture medium containing 10% serum
# Description: The diluted pigments were added and the cells were incubated in the dark for four hours at 37° C. Prior to illumination, the cells were washed once and replaced with fresh culture medium. The plates were then illuminated from the bottom for 10 minutes at room temperature and placed in the culture incubator at 37° C. in the dark. […] The following control systems were used: Dark control—untreated cells kept in the dark; Light control—cells not treated with sensitizer that were illuminated; Dark toxicity—cells treated with pigment but kept in the dark.
# [4] = tested on: RIF (Radiation induced Fibrosarcoma) line; assay: In vitro phototoxicity on RIF cells (MTT); format: cell-based, mouse
# Description: (i) Cell lines. The murine leukemia cell line (L1210) was maintained in suspension culture using Fischer's medium supplemented with 10% horse serum, 1 mM glutamine, 1 mM mercaptoethanol and gentamicin. The RIF (Radiation induced Fibrosarcoma) tumor was maintained as specified by Twentyman et al. (1980, “A new mouse tumor model system (RIF-1) for comparison of end-point studies”, J. Natl. Cancer Inst., 64, 595-604). Cultures were grown in Weymouth's medium containing 10% fetal calf serum and gentamycin.
# as §1, with “The cells were then washed free from the sensitizer, and transferred to fresh media. Irradiations were carried out at 10° C.” left out, “In other studies, the cells were then incubated for 60 min at 37° C. in fresh medium to allow apoptosis to proceed. Viability studies were carried out using 96-well plates and a 72-hour MTT assay, in quadruplicate.” left out
# (iii) Cell Viability. Cell survival was assessed by the MTT reaction carried out 3 days after plating of 1,000-50,000 cells in 96 well plates. […] Absorbance at x nm was determined with a BioRad Plate reader. […]
structure (smiles),measurement,setting,value
"CC[C@H]1C2=NC(=Cc3c(C(C)=O)c(C)c4[n]3[Pd][n]3c(c(C)c5c3=C(C3=NC(=C4)[C@@H](C)[C@@H]3CCC(=O)O)[C@@H](C(=O)OC)C5=O)=C2)[C@@H]1C [Pd-BPheid, Pd-bacteriopheophorbide a]",effect of PDT on C6 glioma tumors,C6 glioma tumors,curative
same,tumor flattening (disappearance),C6 glioma tumors; day 11,100%
same,tumor flattening (disappearance),C6 glioma tumors; day 28,about 60%
same,frequency of metastasis after PDT,C6 glioma tumors; follow up for 4 weeks,up to 23%
same,tumor response to PDT,[1],severe inflammatory response with necrosis of the tumor
same,LD90 concentration,"[2]; 4-hour incubation, illuminated 10 minutes, 15 mW/cm^2, 9 J/cm^2",0.1 µM
same,cells that lost most of their inner volume,[2]; after 4 hours post PDT,90%
same,time of alteration in the cells membrane structure,[2]; post PDT,30 min
same,morphological phenotype post PDT,"[2]; sensitizer at LD90 concentration, phase contrast microscopy",fibrous phenotype
same,photodamage to the plasma membrane or to lysosomes,[3],no detectable photodamage
same,site of photodamage,[3],highly specific mitochondrial photosensitizers
same,phototoxic activity,M2R mouse melanoma cells,fully active
same,light dose required for a similar degree (50%) of cell killing,[4],215 mJ/cm^2
